Structures are written as SMILES. Converted amounts (≈) assume the structure as drawn.

Holding throughout (type): cell-based
In assay [1] the test system is Mycoplasma gallisepticum 34159. Briefly: MIC, conventional broth-dilution microtiter test, Mycoplasma gallisepticum 34159 (tylosin-resistant). The settings on record: Mycoplasmoides gallisepticum, Mycoplasma gallisepticum 34159, tylosin-resistant strain. From the text: (§1) The MIC's in Table I were obtained using a conventional broth-dilution microtiter test.
Assay [2] deals with Mycoplasma hyorhinis S-41313. The assay can be described thus: MIC, conventional broth-dilution microtiter test, Mycoplasma hyorhinis S-41313. The settings on record: S41313.
Excerpt: as §1

Assay [3] deals with Mycoplasma gallisepticum 38502. The assay can be described thus: MIC, conventional broth-dilution microtiter test, Mycoplasma gallisepticum 38502 (tylosin-susceptible). To be noted: Mycoplasmoides gallisepticum, Mycoplasma gallisepticum 38502, tylosin-susceptible strain.
Excerpt: as §1

The subject of assay [4] is Mycoplasma synoviae 46995. Briefly: MIC, conventional broth-dilution microtiter test, Mycoplasma synoviae 46995. The settings on record: Mycoplasmopsis synoviae.
Excerpt: as §1

The subject of assay [5] is Mycoplasma gallisepticum 41313. Briefly: MIC, conventional broth-dilution microtiter test, Mycoplasma gallisepticum 41313 (tylosin-resistant). The settings on record: Mycoplasmoides gallisepticum, Mycoplasma gallisepticum 41313, tylosin-resistant strain.
Excerpt: as §1

Assay [6] concerns Mycoplasma hyopneumoniae S-5972. The assay can be described thus: MIC, conventional broth-dilution microtiter test, Mycoplasma hyopneumoniae S-5972. The settings on record: Mesomycoplasma hyopneumoniae, S5972.
Excerpt: as §1

By MIC is commonly meant the smallest concentration in the dilution series that meets the test's criterion for growth inhibition. Higher therefore signals a need for much substance. As for `CCC1OC(=O)CC(OC(C)=O)C(C)C(OC2OC(C)C(O)C(N(C)C)C2O)C(CC=O)CC(C)C(=O)C=CC(C)=CC1COC1OC(C)C(O)C(O)C1OC` (stereo not shown) [3-Acetyl-lactenocin, 3-O-Acetyllactenocin], the MIC in assay [1] is more than 50 µg/mL; in assay [2], 25 µg/mL (≈ 31.3 µM); in assay [3], 0.78 µg/mL (≈ 0.975 µM); in assay [4], 0.39 µg/mL (≈ 0.488 µM); in assay [5], 50 µg/mL (≈ 62.5 µM).
The like results for `CCC1OC(=O)CC(OC(C)=O)C(C)C(OC2OC(C)C(OC3CC(C)(O)C(O)C(C)O3)C(N(C)C)C2O)C(CC=O)CC(C)C(=O)C=CC(C)=CC1COC1OC(C)C(O)C(O)C1OC` (stereo not shown) [3-Acetyl-macrocin, 3-O-Acetylmacrocin] were, in that order, 50 µg/mL (≈ 53 µM), 6.25 µg/mL (≈ 6.62 µM), 0.78 µg/mL (≈ 0.826 µM), 0.39 µg/mL (≈ 0.413 µM) and 50 µg/mL (≈ 53 µM).
As to `CCCC(=O)OC1C(C)OC(OC2C(C)OC(OC3C(CC=O)CC(C)C(=O)C=CC(C)=CC(COC4OC(C)C(O)C(O)C4OC)C(CC)OC(=O)CC(OC(C)=O)C3C)C(O)C2N(C)C)CC1(C)O` (stereo not shown) [3-Acetyl-4"-(n-Butyryl)-macrocin, 3-O-acetyl-4"-O-(n-butyryl)macrocin], the minimal inhibitory concentration (MIC) in assay [1] was 6.25 µg/mL (≈ 6.16 µM); in assay [2] it was 0.39 µg/mL (≈ 0.385 µM); in assay [3] it was 0.195 µg/mL (≈ 0.192 µM); in assay [4], not above 0.048 µg/mL; in assay [5], 3.12 µg/mL (≈ 3.08 µM); in assay [6], 0.048 µg/mL (≈ 0.0473 µM).
For `CCC1OC(=O)CC(OC(C)=O)C(C)C(OC2OC(C)C(OC3CC(C)(O)C(OC(=O)CC(C)C)C(C)O3)C(N(C)C)C2O)C(CC=O)CC(C)C(=O)C=CC(C)=CC1COC1OC(C)C(O)C(O)C1OC` (stereo not shown) [3-Acetyl-4"-Isovaleryl-macrocin, 3-O-acetyl-4"-O-isovalerylmacrocin], the minimal inhibitory concentration (MIC) in assay [1] was 3.12 µg/mL (≈ 3.03 µM); in assay [2], 0.39 µg/mL (≈ 0.379 µM); in assay [3], not above 0.048 µg/mL; in assay [4] it was not above 0.048 µg/mL; in assay [5], 3.12 µg/mL (≈ 3.03 µM); in assay [6], 0.048 µg/mL (≈ 0.0467 µM).

The values above are taken from patent US4594337A, “Methods of controlling mycoplasma infections” (Eli Lilly and Company, priority 1985, dated 1986).
